# Calls of active or inactive are those of the source.
# Columns and labels:
# [1] = A Cell Based Secondary Assay To Explore Cytotoxicity of Compounds that Sensitize Mycobacterium Tuberculosis to Beta-Lactam Antibiotics.; assay type: functional
# [2] = A549 cell cytotoxicity, dose response, cytotoxicity control, plate reader, cherry-pick, antagonist series (AID 743412); assay type: functional, cell-based
# [3] = HepG2 cell cytotoxicity, dose response, cytotoxicity control, plate reader, cherry-pick, antagonist series (AID 743416); assay type: functional, cell-based
# [4] = target: T1, Microphthalmia-associated transcription factor (Homo sapiens, UniProt O75030); experiment: TRPM1 promoter luciferase signal decrease, dose response, MITF inhibitor project, cell-based, SK-MEL-5, cherry-picked, set 3 (AID 493073); assay type: functional
# T1 sequence (O75030 whole entry): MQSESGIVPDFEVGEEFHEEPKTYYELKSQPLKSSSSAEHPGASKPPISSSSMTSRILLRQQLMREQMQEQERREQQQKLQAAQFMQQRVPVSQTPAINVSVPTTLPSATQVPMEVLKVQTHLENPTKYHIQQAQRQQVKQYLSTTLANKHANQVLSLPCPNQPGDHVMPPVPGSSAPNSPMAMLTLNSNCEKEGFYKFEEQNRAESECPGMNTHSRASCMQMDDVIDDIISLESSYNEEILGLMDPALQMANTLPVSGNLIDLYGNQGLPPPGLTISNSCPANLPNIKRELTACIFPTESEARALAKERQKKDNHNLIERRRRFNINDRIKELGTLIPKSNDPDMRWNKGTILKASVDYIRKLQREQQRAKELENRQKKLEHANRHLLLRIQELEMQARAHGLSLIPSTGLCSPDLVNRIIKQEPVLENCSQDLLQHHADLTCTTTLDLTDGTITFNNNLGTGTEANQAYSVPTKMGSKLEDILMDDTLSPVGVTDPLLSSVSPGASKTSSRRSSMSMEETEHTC
# [5] = MC4R antagonists, dose response, counter-screen for LGR2 antagonist project, cell-based, plate reader, cherry pick (AID 743444); assay type: functional;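 note: transfected HEK 293 cells stimulated with alpha-MSH peptide; potency of inhibitors of the alpha-MSH evoked signal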
# [6] = LGR2 antagonists, dose response, cell-based, HEK293, CRE-luciferase reporter, cherry pick, set 2 (AID 743343); assay type: functional;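 note: transfected cells were stimulated with diluted bursicon conditioned medium after compound addition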
# [7] = HEK293 cell cytotoxicity, dose response, cytotoxicity control, plate reader, cherry-picked samples (AID 743446); assay type: functional, cell-based
# Paired box protein Pax-8 = Paired box protein Pax-8 (Homo sapiens, UniProt Q06710); experiment: inhibitors of PAX8-driven TPO luciferase reporter, dose response, RMG-I cells, cherry-pick (AID 687027); assay type: functional, cell-based;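 note: luciferase reporter driven by Pax8 target thyroperoxidase promoter measured by SteadyGlo luminescence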
# Procathepsin L = Procathepsin L (Homo sapiens, UniProt P07711)
# Aspartyl aminopeptidase = Aspartyl aminopeptidase (Plasmodium falciparum 3D7, UniProt Q8I2J3)
# INS1 = experiment: beta cell apoptosis inhibitors, cytokine rescue, dose response, luminescence, retest (AID 449756); assay type: functional, cell-based; conditions: Rattus norvegicus;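 note: cell death triggered by IL-1 beta plus TNF-alpha plus IFN-gamma mixture; protective hits raise ATP signal compared with cytokine alone wells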
# [8] = target: Serine/threonine-protein phosphatase (Homo sapiens, UniProt Q9BPW0); experiment: Counterscreen for inhibitors of PP1: fluorescence-based biochemical high throughput dose response assay to identify inhibitors of Protein Phosphatase 5 (PP5). [Related pubchem assays: 2034 (Summary (PP5 inhibitors)), 1987 (PP5 inhibitors in singlate), 2235 (PP1 inhibitors in singlate)]
# [9] = cytotoxicity toward NIH3T3 fibroblasts, dose response, counter-screen, cell-based, ATP luminescence, mouse fibroblasts (AID 2010); assay type: functional;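 note: cells exposed to compound for about 90 hours before reading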
# [10] = target: Serine/threonine-protein phosphatase PP1-alpha catalytic subunit (Homo sapiens, UniProt P62136); experiment: PP1 phosphatase inhibitors, dose response, biochemical, fluorescence (AID 2403);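 note: phosphatase turnover of OMFP into fluorescent 3-O-methylfluorescein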
# [11] = inhibitors of intracellular T. cruzi replication, confirmation, NIH3T3 host cells, beta-gal luminescence (AID 2044); assay type: functional, cell-based;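 note: intracellular parasites grown in NIH/3T3 mouse fibroblasts as host cells; luminescent beta-galactosidase reporter signal from transgenic T. cruzi replicating inside host cells; inhibitors lower the luminescence signal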
# [12] = target: Acyl-homoserine lactone acylase PvdQ (Pseudomonas aeruginosa (strain LESB58), UniProt Q9I194); experiment: P. aeruginosa PvdQ acylase inhibitors, dose response, biochemical, fluorescence, plate reader and imaging, cherry-picks (AID 493231)
# [13] = target: Neurotensin receptor type 1 (Homo sapiens, UniProt P30989); assay type: functional;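 note: Image-based confirmatory dose-response assay measuring agonist activity at NTR1; NTR1-expressing U2OS osteosarcoma cells imaged for beta-arrestin GFP spot formation; agonist potency where compounds increase beta-arrestin recruitment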
# [14] = cytotoxicity in KRAS-transformed pancreatic duct cells, primary screen, cell-based, fluorescence, HTS (AID 431); assay type: functional; conditions: Homo sapiens;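 note: cell line used: HPDE-C7K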
# [15] = cytotoxicity in HPDE-C7 cells, cell-based, fluorescence, HTS (AID 430); assay type: functional; conditions: Homo sapiens
# Streptokinase A = target: T2, Streptokinase A (Streptococcus pyogenes serotype M1, UniProt P10520); experiment: S. pyogenes streptokinase expression inhibitors, potency, dose response, plasminogen activation absorbance, OD405 (AID 1914); assay type: functional, Streptococcus pyogenes M1 GAS;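 note: secreted streptokinase activity via plasminogen activation per viability signal from cell pellet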
# T2 sequence (P10520 whole entry): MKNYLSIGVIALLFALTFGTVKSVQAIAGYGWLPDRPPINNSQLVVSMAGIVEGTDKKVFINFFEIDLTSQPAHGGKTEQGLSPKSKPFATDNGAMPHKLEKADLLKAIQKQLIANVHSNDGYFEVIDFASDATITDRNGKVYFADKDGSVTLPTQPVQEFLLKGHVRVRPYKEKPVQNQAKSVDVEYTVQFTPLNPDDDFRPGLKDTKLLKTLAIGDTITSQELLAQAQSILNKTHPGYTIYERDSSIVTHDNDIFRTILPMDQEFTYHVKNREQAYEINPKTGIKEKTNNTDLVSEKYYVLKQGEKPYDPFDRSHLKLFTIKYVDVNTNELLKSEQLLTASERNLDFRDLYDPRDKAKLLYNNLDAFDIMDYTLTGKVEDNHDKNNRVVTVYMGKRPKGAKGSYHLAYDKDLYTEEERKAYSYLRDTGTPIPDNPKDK
# Streptococcus = experiment: Group A Streptococcus viability loss, dose response, counter-screen for streptokinase expression inhibitor project, luminescence, BacTiterGlo (AID 1915); assay type: functional, organism-based;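 note: potency for reduction of bacterial viability or growth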
# [16] = system: Streptococcus sp. 'group A'; experiment: growth inhibition of control SK(-) GAS strain, dose response, counter-screen for streptokinase expression inhibitor project, luminescence, kanamycin, BacTiterGlo, confirmation (AID 1900); assay type: functional, organism-based
# [17] = target: Transitional endoplasmic reticulum ATPase (Homo sapiens, UniProt P55072, C522A); experiment: C522A mutant p97 ATPase inhibitors, dose response, counter-screen for p97 inhibitor project, biochemical, luminescence (AID 1544)
# [18] = Artemis endonuclease inhibitor potency, dose response, biochemical, fluorescence intensity (AID 720701); assay type: functional;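 note: Artemis endonuclease enzyme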
# Nonstructural protein 1 = Nonstructural protein 1 (Influenza A virus, UniProt Q194T2); assay type: functional, Influenza A virus (A/California/07/2009(H1N1))
# [19] = target: FAD-linked sulfhydryl oxidase ALR (Homo sapiens, UniProt P55789); experiment: inhibitors of human ALR sulfhydryl oxidase, dose response, biochemical, H2O2 detection, luminescence, cherry-pick (AID 493248)
# [20] = target: Transitional endoplasmic reticulum ATPase (Homo sapiens, UniProt P55072); experiment: p97 ATPase inhibitors, dose response, biochemical (AID 1534)
# [21] = off-target signal loss in HeLa-CEM21 co-culture – HeLa F-luc CTL cells, cherry-picked, counter-screen for HIV-1 Env fusion inhibitor project, dose response (AID 652040); assay type: functional, cell-based;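 note: potency for signal decrease marking cytotoxic or nonspecific inhibition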
# [22] = non-specific cell cytotoxicity, dose response, cytotoxicity control for PAX8 inhibitor project, plate reader, dry powder samples (AID 743021); assay type: functional, cell-based
# [23] = inhibition of ADP-Glo detection reagents, dose response, artefact control for CDK5 inhibitor project, biochemical, luminescence, cherry-picked samples, set 2 (AID 504546); assay type: functional
# [24] = inhibitors of clade B AD8 Env fusion, dose response, cell-based, cherry-pick (AID 652062); assay type: functional;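 note: luciferase signal from cell-cell fusion driven by HIV-1 clade B AD8 Env; potency is for inhibitors of fusion seen as a drop in luminescence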
# [25] = Luminescence Cell-Based Dose Confirmation HTS to Identify Inhibitors of Platelet Dense Granule Release. [Related pubchem assays: 1663 (Primary HTS), 1678 (Summary of Project)]; assay type: functional
# [26] = ZM109 Env clade C HIV-1 fusion inhibitors, dose response, HeLa effector, CEM target cells, luciferase, cherry-pick (AID 652058); assay type: functional, cell-based
# [27] = inhibitors of HIV Env-driven cell fusion, dose response, cherry-pick (AID 652057); assay type: functional, cell-based
# [28] = CEM21 lymphoblast cell cytotoxicity, dose response, cytotoxicity control for viral fusion inhibitor project, CellTiter-Glo luminescence, cherry-picked (AID 652042); assay type: functional, cell-based;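 note: potency for signal decrease meaning cytotoxicity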
# [29] = target: T3, Alkaline phosphatase, tissue-nonspecific isozyme (Homo sapiens, UniProt P05186)
# T3 sequence (P05186 whole entry): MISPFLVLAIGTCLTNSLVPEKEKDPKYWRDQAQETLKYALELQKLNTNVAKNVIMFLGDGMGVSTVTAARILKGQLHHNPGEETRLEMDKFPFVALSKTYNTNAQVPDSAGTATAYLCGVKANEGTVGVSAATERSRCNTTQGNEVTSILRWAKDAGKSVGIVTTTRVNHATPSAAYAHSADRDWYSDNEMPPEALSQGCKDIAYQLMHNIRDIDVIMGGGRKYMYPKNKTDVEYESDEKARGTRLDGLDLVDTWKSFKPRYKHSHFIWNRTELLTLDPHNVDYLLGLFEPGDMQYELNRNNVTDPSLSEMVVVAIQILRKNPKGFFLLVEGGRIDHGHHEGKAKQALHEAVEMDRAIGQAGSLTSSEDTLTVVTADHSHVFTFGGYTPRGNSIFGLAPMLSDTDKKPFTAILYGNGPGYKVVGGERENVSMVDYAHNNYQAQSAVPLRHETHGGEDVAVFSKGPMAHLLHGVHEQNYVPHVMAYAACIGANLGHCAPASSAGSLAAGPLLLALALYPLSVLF
# [30] = target: T4, Voltage-gated N-type calcium channel alpha-1B subunit/Amyloid beta A4 precursor protein-binding family A member 1 (Homo sapiens, UniProt Q00975+Q02410); experiment: disruptors of Mint-PDZ/N-type channel peptide interaction – biochemical, HTRF, SAR follow-up (AID 2489); assay type: functional
# [31] = target: T4, Voltage-gated N-type calcium channel alpha-1B subunit/Amyloid beta A4 precursor protein-binding family A member 1; experiment: disruptors of Mint-PDZ/N-type channel peptide interaction – biochemical, HTRF, set 2, SAR follow-up (AID 434980); assay type: functional
# [32] = target: T5, Eukaryotic translation initiation factor 2-alpha kinase 3 (Homo sapiens, UniProt Q9NZJ5); experiment: Counterscreen assay for PERK inhibitors: Dose response cell-based high throughput screening assay to measure inhibition of PERK at 6 hours. [Related pubchem assays: 1522, 1416 ]; assay type: functional
# [33] = target: T5, Eukaryotic translation initiation factor 2-alpha kinase 3; experiment: Dose response cell-based high-throughput screening assay to measure PERK inhibition. [Related pubchem assays: 1416 ]; assay type: functional
# [34] = target: Lysosomal acid glucosylceramidase (Homo sapiens, UniProt P04062); experiment: Dose response cell-based high throughput screening assay to identify enhancers of beta-glucosidase activity. [Related pubchem assays: 784 ]; assay type: functional
# Cytochrome P450 2C9 = Cytochrome P450 2C9 (Homo sapiens, UniProt P11712); conditions: Potency
# Cytochrome P450 2D6 = Cytochrome P450 2D6 (Homo sapiens, UniProt P10635); experiment: qHTS Assay for Inhibitors and Substrates of Cytochrome P450 2D6. [Related pubchem assays: 410 ]; assay type: ADME; conditions: read-out: Potency
# [35] = target: Polyadenylate-binding protein 1 (Homo sapiens, UniProt P11940); experiment: PABP poly(A) RNA binding inhibitors, primary screen, biochemical, fluorescence polarization, uHTS (AID 2014)
# [36] = target: Eukaryotic translation initiation factor 4H (Homo sapiens, UniProt Q15056); experiment: human eIF4H binding inhibitors, primary screen, translation initiation inhibitor project, biochemical, uHTS, fluorescence polarization (AID 2012)
structure (smiles),measurement,setting,value
Cn1nnnc1Sc1ncnc2scc(-c3cccc(F)c3)c12,CC50,[1],17.6 µM (active)
same,AC50,[2],7.53 µM (active)
same,AC50,[3],6.73 µM (active)
same,AC50,[4],5.98 µM (active)
same,AC50,[5],12 µM (active)
same,AC50,[6],6.24 µM (active)
same,AC50,[7],6.26 µM (active)
same,AC50,Paired box protein Pax-8,2.64 µM (active)
COC(=O)CN(n1cnnc1)S(=O)(=O)c1ccccc1,IC50,Procathepsin L,> 59.6 µM (not active)
same,IC50,Aspartyl aminopeptidase,0.497 µM (active)
COc1ccc(Sc2nc(-c3ccccn3)ncc2OC)cc1,AC50,INS1,5.13 µM (active)
same,IC50,[8],> 67 µM (not active)
same,EC50,[9],> 60 µM (inconclusive)
same,IC50,[10],6.04 µM (active)
same,EC50,[11],1.9 µM (active)
Cc1cc(C)nc(N(C#N)Cc2cccc([N+](=O)[O-])c2)n1,AC50,[12],4.72 µM (active)
Cc1sc(NC(=O)c2ccco2)nc1-c1ccc2c(c1)CC(C)N2C(=O)C1CC1 (stereo not given),EC50,[13],30.2 µM (inactive)
same,EC50,[14],7.22 µM (active)
same,EC50,[15],7.02 µM (active)
O=C(NNc1c2ccccc2nc2ccccc12)c1ccc(O)cc1O,EC50,Streptokinase A,> 150 µM (not active)
same,EC50,Streptococcus,23.7 µM (active)
same,EC50,[16],2.59 µM (active)
same,IC50,[17],> 50 µM (not active)
same,IC50,[18],13.3 µM (active)
same,IC50,Nonstructural protein 1,32.1 µM (active)
same,AC50,[19],0.062 µM (active)
same,IC50,[20],> 50 µM (not active)
COc1ccc(C(=O)O/N=C(\N)c2ccccn2)cc1,AC50,[21],7.65 µM (active)
same,AC50,[22],30 µM (active)
same,AC50,[23],19.8 µM (active)
same,AC50,[24],11.9 µM (active)
same,EC50,[25],0.962 µM (active)
same,AC50,[26],19.4 µM (active)
same,AC50,[27],2.26 µM (active)
same,AC50,[28],21.6 µM (active)
COc1ccccc1CNC(=O)C1(NC(=O)Nc2ccc(C)cc2)CCCCC1,EC50,[29],37.3 µM (active)
COc1ccccc1CCNC(=O)c1cc(-c2ccco2)nc2ccccc12,IC50,[30],> 56.8 µM (inactive)
same,IC50,[31],25.8 µM (active)
Cc1nsc(N)c1C(=O)O,EC50,[32],> 55.7 µM (not active)
same,EC50,[33],> 55.7 µM (not active)
CCOC(=O)C1(Cc2ccc(O)cc2)NC(c2ccccc2F)C2C(=O)N(C)C(=O)C21 (stereo not given),EC50,[34],> 50 µM (not active)
Clc1nc(NCCc2ccccc2)c2ncn(-c3ccccc3)c2n1,AC50,Cytochrome P450 2C9,7.94 µM (inconclusive)
same,AC50,Cytochrome P450 2D6,3.98 µM (inconclusive)
COC(=O)c1c(NC(=O)/C=C/c2ccco2)sc2c1CCC2,IC50,[35],> 100 µM (inactive)
same,IC50,[36],50.4 µM (active)

# — ChEMBL document CHEMBL1201862, “PubChem BioAssay data set” (2004)
